Experimental data published in PubChem BioAssay AID256 (DTP/NCI, 2004).
Several values for one entry are separate records, joined by “and”; a condition that tells them apart may be missing. Equal values may be shown once. Toxic doses and inconclusive results are not listed. The calls were made as follows: active = survival T/C of 150% or more; inactive = T/C below 125% in these data.

Tested on: CD2F1 mice, L1210 leukemia ip, survival T/C
Test: NCI In Vivo Anticancer Drug Screen. Data for tumor model L1210 Leukemia (intraperitoneal) in CD2F1 (CDF1) mice
Details: higher = longer survival
Procedure, shortened: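 Read-out first: treated-group measurement over vehicle-control measurement, expressed as a ratio. Animals bore a transplanted tumor line and were dosed with compound or vehicle.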

[1] = endpoint: mean survival time, dose: 100.0 mg/kg/injection, schedule: Q01DX001 (ip), vehicle: saline
[2] = endpoint: mean survival time, dose: 6.25 mg/kg/injection, schedule: Q01DX009 (ip), vehicle: saline with Tween-80
[3] = endpoint: mean survival time, dose: 12.5 mg/kg/injection, schedule: Q01DX009 (ip), vehicle: saline with Tween-80
[4] = endpoint: mean survival time, dose: 25.0 mg/kg/injection, schedule: Q01DX009 (ip), vehicle: saline with Tween-80
[5] = endpoint: mean survival time, dose: 50.0 mg/kg/injection, schedule: Q01DX009 (ip), vehicle: saline with Tween-80
[6] = endpoint: mean survival time, dose: 100.0 mg/kg/injection, schedule: Q01DX009 (ip), vehicle: saline with Tween-80
[7] = endpoint: mean survival time, dose: 200.0 mg/kg/injection, schedule: Q01DX009 (ip), vehicle: saline with Tween-80
[8] = endpoint: mean survival time, dose: 400.0 mg/kg/injection, schedule: Q01DX009 (ip), vehicle: saline with Tween-80
[9] = endpoint: mean survival time, dose: 100.0 mg/kg/injection, schedule: Q04DX003 (ip), vehicle: saline with Tween-80
[10] = endpoint: mean survival time, dose: 200.0 mg/kg/injection, schedule: Q04DX003 (ip), vehicle: saline with Tween-80
[11] = endpoint: mean survival time, dose: 400.0 mg/kg/injection, schedule: Q04DX003 (ip), vehicle: saline with Tween-80

Measured: T/C

C/C(=N\O)c1ccccn1
inactive: endpoint: mean survival time, dose: 25.0 mg/kg/injection, schedule: Q01DX009 (ip), vehicle: Klucel (hydroxypropylcellulose) (HPC) 95 % of control | endpoint: mean survival time, dose: 50.0 mg/kg/injection, schedule: Q01DX009 (ip), vehicle: Klucel (hydroxypropylcellulose) (HPC) 100 % of control | endpoint: mean survival time, dose: 100.0 mg/kg/injection, schedule: Q01DX009 (ip), vehicle: Klucel (hydroxypropylcellulose) (HPC) 90 % of control | endpoint: mean survival time, dose: 200.0 mg/kg/injection, schedule: Q01DX009 (ip), vehicle: Klucel (hydroxypropylcellulose) (HPC) 95 % of control | endpoint: mean survival time, dose: 400.0 mg/kg/injection, schedule: Q01DX009 (ip), vehicle: Klucel (hydroxypropylcellulose) (HPC) 105 % of control

[Cl][Pt+2][Cl].[NH-]c1cc(Cl)c(Cl)c(Cl)c1[NH-]
inactive: endpoint: mean survival time, dose: 2.5 mg/kg/injection, schedule: Q01DX009 (ip), vehicle: saline with Tween-80 105 % of control | endpoint: mean survival time, dose: 5.0 mg/kg/injection, schedule: Q01DX009 (ip), vehicle: saline with Tween-80 100 % of control | endpoint: mean survival time, dose: 10.0 mg/kg/injection, schedule: Q01DX009 (ip), vehicle: saline with Tween-80 100 % of control | endpoint: mean survival time, dose: 20.0 mg/kg/injection, schedule: Q01DX009 (ip), vehicle: saline with Tween-80 107 % of control | endpoint: mean survival time, dose: 40.0 mg/kg/injection, schedule: Q01DX009 (ip), vehicle: saline with Tween-80 94 % of control

CC(=O)Nc1ccc(F)cc1
inactive: endpoint: mean survival time, dose: 100.0 mg/kg/injection, schedule: Q04DX003 (ip), vehicle: saline 105 % of control | endpoint: mean survival time, dose: 200.0 mg/kg/injection, schedule: Q04DX003 (ip), vehicle: saline 100 % of control | endpoint: mean survival time, dose: 400.0 mg/kg/injection, schedule: Q04DX003 (ip), vehicle: saline 95 % of control

O=C(Nc1cc(Cl)c(I)c(Cl)c1)C(F)(F)F
inactive: [1] 98 % of control | endpoint: mean survival time, dose: 200.0 mg/kg/injection, schedule: Q01DX001 (ip), vehicle: saline 101 % of control | endpoint: mean survival time, dose: 400.0 mg/kg/injection, schedule: Q01DX001 (ip), vehicle: saline 98 % of control

COc1cc([C@@H]2c3cc4c(cc3[C@H](OC(C)=O)[C@H]3COC(=O)[C@@H]23)OCO4)cc(OC)c1OC
inactive: endpoint: mean survival time, dose: 100.0 mg/kg/injection, schedule: Q01DX009 (ip), vehicle: saline sonified 88 % of control

CC1=NCCN1CCN
inactive: endpoint: mean survival time, dose: 100.0 mg/kg/injection, schedule: Q04DX002 (ip), vehicle: saline 91 % of control | endpoint: mean survival time, dose: 200.0 mg/kg/injection, schedule: Q04DX002 (ip), vehicle: saline 109 % of control | endpoint: mean survival time, dose: 400.0 mg/kg/injection, schedule: Q04DX002 (ip), vehicle: saline 113 % of control

COc1ccc(C(=O)/C=C/c2ccc(N(C)C)cc2)cc1
inactive: endpoint: mean survival time, dose: 75.0 mg/kg/injection, schedule: Q01DX001 (ip), vehicle: saline 95 % of control | endpoint: mean survival time, dose: 150.0 mg/kg/injection, schedule: Q01DX001 (ip), vehicle: saline 93 % of control

CCCCN(CCCC)CCCC
inactive: [1] 93 % of control

C[Si](C)(C)O/C=C1\CCCCC1=O
inactive: [2] 98 % of control and 100 % of control | [3] 96 % of control and 98 % of control | [4] 91 % of control and 100 % of control | [5] 93 % of control and 100 % of control | [6] 93 % of control and 102 % of control | [7] 105 % of control

CCCCCCC(=O)O.[Pb]
inactive: endpoint: mean survival time, dose: 75.0 mg/kg/injection, schedule: Q01DX001 (ip), vehicle: other 107 % of control | endpoint: mean survival time, dose: 150.0 mg/kg/injection, schedule: Q01DX001 (ip), vehicle: other 97 % of control | endpoint: mean survival time, dose: 300.0 mg/kg/injection, schedule: Q01DX001 (ip), vehicle: other 103 % of control

COC(=O)C1C2(C)CCc3cc(OC)ccc3C2=CC(=O)C1(C)C(=O)OC (centres undefined)
inactive: endpoint: mean survival time, dose: 100.0 mg/kg/injection, schedule: Q04DX003 (sc), vehicle: steriod suspending solution 97 % of control | endpoint: mean survival time, dose: 200.0 mg/kg/injection, schedule: Q04DX003 (sc), vehicle: steriod suspending solution 103 % of control | endpoint: mean survival time, dose: 400.0 mg/kg/injection, schedule: Q04DX003 (sc), vehicle: steriod suspending solution 98 % of control

Cn1c(=O)cc(C=Nc2ccc(S(N)(=O)=O)cc2)c2ccccc21
inactive: [6] 90 % of control | [7] 89 % of control | [8] 89 % of control

COc1ccc(N=C/C=C/c2ccccc2)cc1
inactive: [6] 97 % of control | endpoint: mean survival time, dose: 100.0 mg/kg/injection, schedule: Q04DX003 (ip), vehicle: saline sonified 96 % of control | [7] 89 % of control | endpoint: mean survival time, dose: 200.0 mg/kg/injection, schedule: Q04DX003 (ip), vehicle: saline sonified 103 % of control | [8] 90 % of control | endpoint: mean survival time, dose: 400.0 mg/kg/injection, schedule: Q04DX003 (ip), vehicle: saline sonified 97 % of control

O=C=NC(c1ccccc1)(c1ccccc1)c1ccccc1
inactive: [9] 95 % of control and 99 % of control | [10] 103 % of control and 104 % of control | [11] 97 % of control

N#Cc1ccccc1C(C#N)c1ccc([N+](=O)[O-])cc1 (centres undefined)
inactive: endpoint: mean survival time, dose: 50.0 mg/kg/injection, schedule: Q04DX003 (ip), vehicle: DMSO 93 % of control | endpoint: mean survival time, dose: 100.0 mg/kg/injection, schedule: Q04DX003 (ip), vehicle: DMSO 98 % of control | endpoint: mean survival time, dose: 200.0 mg/kg/injection, schedule: Q04DX003 (ip), vehicle: DMSO 93 % of control | endpoint: mean survival time, dose: 400.0 mg/kg/injection, schedule: Q04DX003 (ip), vehicle: DMSO 96 % of control

Cc1cc2cc3cc(C)c(N)cc3nc2cc1N
inactive: endpoint: mean survival time, dose: 3.12 mg/kg/injection, schedule: Q01DX009 (ip), vehicle: saline with Tween-80 103 % of control and 106 % of control | [2] 101 % of control and 107 % of control | [3] 106 % of control | [4] 98 % of control and 106 % of control | [5] 86 % of control and 97 % of control | [6] 92 % of control

COc1ccc(OC)c(N=C2C(=O)Nc3ccc(Br)cc32)c1
inactive: endpoint: mean survival time, dose: 100.0 mg/kg/injection, schedule: Q04DX002 (ip), vehicle: saline with Tween-80 91 % of control | endpoint: mean survival time, dose: 200.0 mg/kg/injection, schedule: Q04DX002 (ip), vehicle: saline with Tween-80 91 % of control

O=C(O)CNC(=O)CCNC(=O)OCc1ccccc1
inactive: [6] 95 % of control | [7] 93 % of control | [8] 93 % of control

CC(=O)N(C)c1ccc(NC(=O)Nc2ccc(C)c(C)c2)cc1
inactive: [5] 91 % of control | [6] 91 % of control | [7] 88 % of control

CC(=O)NC(CC(C)C)C(=O)O.CC(=O)NC(CC(C)C)C(=O)O.[NH-]C1CCCCC1[NH-].[Pt+2] (centres undefined)
inactive: endpoint: median survival time, dose: 3.12 mg/kg/injection, schedule: Q04DX003 (ip), vehicle: saline 97 % of control | endpoint: median survival time, dose: 6.25 mg/kg/injection, schedule: Q04DX003 (ip), vehicle: saline 100 % of control | endpoint: median survival time, dose: 12.5 mg/kg/injection, schedule: Q04DX003 (ip), vehicle: saline 97 % of control | endpoint: median survival time, dose: 25.0 mg/kg/injection, schedule: Q04DX003 (ip), vehicle: saline 100 % of control | endpoint: median survival time, dose: 50.0 mg/kg/injection, schedule: Q04DX003 (ip), vehicle: saline 104 % of control | endpoint: median survival time, dose: 100.0 mg/kg/injection, schedule: Q04DX003 (ip), vehicle: saline 105 % of control | endpoint: median survival time, dose: 200.0 mg/kg/injection, schedule: Q04DX003 (ip), vehicle: saline 108 % of control

CCCCCC(O)C1C(=O)OC(C)C(O)/C=C/C=C/C=C/C=C\C=C(\C)C(O)CC(O)CC(O)CC(O)CC(O)CC(O)CC1O (centres undefined)
inactive: endpoint: median survival time, dose: 3.12 mg/kg/injection, schedule: Q01DX009 (ip), vehicle: distilled water + alcohol 104 % of control | endpoint: median survival time, dose: 6.25 mg/kg/injection, schedule: Q01DX009 (ip), vehicle: distilled water + alcohol 104 % of control | endpoint: median survival time, dose: 12.5 mg/kg/injection, schedule: Q01DX009 (ip), vehicle: distilled water + alcohol 104 % of control | endpoint: median survival time, dose: 25.0 mg/kg/injection, schedule: Q01DX009 (ip), vehicle: distilled water + alcohol 100 % of control

CC(CO)CCC(C)CO (centres undefined)
inactive: [9] 100 % of control | [10] 95 % of control | [11] 100 % of control
